Assay results as given in ChEMBL document CHEMBL1201862, “PubChem BioAssay data set” (2004).
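Dose response: 5 concentrations. Exposure: 48 h. Format: 96-well plates. Endpoint: linear interpolation; highest concentration if not reached. Here, GI50 denotes the concentration required for 50% inhibition of growth.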 Activity calls are given as the source filed them. Rule as the data show it: active = GI50 up to about 1.1 µM and inactive = higher.

Tests used:
Assay in all cases: NCI tumour cell line growth inhibition, 48 h
HCC 2998 = system: HCC 2998
OVCAR-3 = system: OVCAR-3
786-0 = system: 786-0
SNB-75 = system: SNB-75
SNB-19 = system: SNB-19
SN12C = system: SN12C
SK-MEL-28 = system: SK-MEL-28
IGROV-1 = system: IGROV-1
TK-10 = system: TK-10
NCI-H460 = system: NCI-H460
SK-MEL-2 = system: SK-MEL-2
HL-60 = system: HL-60
NCI-H23 = system: NCI-H23
SF-268 = system: SF-268
MOLT-4 = system: MOLT-4
SK-MEL-5 = system: SK-MEL-5
K562 = system: K562
UACC-257 = system: UACC-257
SF-295 = system: SF-295

Measured: GI50

CC1CC2=Nc3ccccc3NC(c3ccccc3)C2=C(O)O1 (centres undefined)
inactive: HCC 2998 > 100 µM | OVCAR-3 > 100 µM | 786-0 > 100 µM | SNB-75 > 100 µM | SNB-19 > 100 µM | SN12C > 100 µM | SK-MEL-28 > 100 µM | IGROV-1 > 100 µM | TK-10 > 100 µM | NCI-H460 > 100 µM | SK-MEL-2 > 100 µM | HL-60 > 100 µM | NCI-H23 > 100 µM | SF-268 > 100 µM | MOLT-4 > 100 µM | SK-MEL-5 > 100 µM | K562 > 100 µM | UACC-257 > 100 µM

CSc1nc(NC(=O)O)c(N(C(C)=O)C(=O)O)c(=O)n1C
inactive: HCC 2998 > 100 µM | OVCAR-3 > 100 µM | SF-295 > 100 µM | 786-0 > 100 µM | SNB-19 > 100 µM | SN12C > 100 µM | SK-MEL-28 > 100 µM | IGROV-1 > 100 µM | NCI-H460 > 100 µM | SK-MEL-2 > 100 µM | HL-60 > 100 µM | SF-268 > 100 µM | MOLT-4 > 100 µM | SK-MEL-5 > 100 µM | K562 > 100 µM | UACC-257 > 100 µM

CC1(C)c2ccccc2C(C)(C)C(C(=O)Nc2ccccc2)C1C(=O)O (centres undefined)
inactive: HCC 2998 > 100 µM | OVCAR-3 > 100 µM | SF-295 > 100 µM | 786-0 > 100 µM | SNB-75 > 100 µM | SNB-19 > 100 µM | SN12C > 100 µM | SK-MEL-28 > 100 µM | TK-10 > 100 µM | SK-MEL-2 > 100 µM | HL-60 > 100 µM | NCI-H23 > 100 µM | SF-268 > 100 µM | MOLT-4 > 100 µM | SK-MEL-5 > 100 µM | K562 > 100 µM | UACC-257 > 100 µM

CCC1=CCN(c2cc(C)ccn2)OC1c1ccc(OC)cc1 (centres undefined)
inactive: HCC 2998 40.6 µM | OVCAR-3 42.7 µM | SF-295 22.2 µM | 786-0 34.8 µM | SNB-75 33.7 µM | SNB-19 46.1 µM | SN12C 26 µM | SK-MEL-28 24.1 µM | IGROV-1 55.7 µM | NCI-H460 31.7 µM | SK-MEL-2 16.9 µM | HL-60 22.5 µM | NCI-H23 34 µM | SF-268 45.1 µM | MOLT-4 26.9 µM | SK-MEL-5 16.9 µM | K562 34 µM | UACC-257 23.6 µM

Cc1ccccc1NC(=O)C(=O)C1CN(c2ccccc2)N=C1N (centres undefined)
inactive: HCC 2998 > 100 µM | OVCAR-3 > 100 µM | 786-0 > 100 µM | SNB-75 86.5 µM | SNB-19 > 100 µM | SN12C > 100 µM | SK-MEL-28 > 100 µM | IGROV-1 > 100 µM | NCI-H460 > 100 µM | HL-60 > 100 µM | NCI-H23 > 100 µM | SF-268 > 100 µM | MOLT-4 > 100 µM | SK-MEL-5 > 10 µM | K562 > 100 µM | UACC-257 > 100 µM

Cc1ccc2c(c1)C1(OC(=O)c3ccccc31)c1ccc(F)cc1O2 (centres undefined)
inactive: HCC 2998 66.1 µM | OVCAR-3 55.2 µM | 786-0 77.6 µM | SN12C > 100 µM | IGROV-1 > 100 µM | TK-10 > 100 µM | SK-MEL-2 43.3 µM | HL-60 21.7 µM | SF-268 68.4 µM | MOLT-4 20.3 µM | SK-MEL-5 32.7 µM | K562 35 µM | UACC-257 31 µM

CC(C)(C)C1=NO[C@H]2[C@@H](NC(=O)c3ccccc3)CC[C@@H]12
inactive: HCC 2998 > 100 µM | OVCAR-3 > 100 µM | SF-295 > 100 µM | 786-0 > 100 µM | SNB-75 38.3 µM | SNB-19 > 100 µM | SN12C > 100 µM | SK-MEL-28 > 100 µM | IGROV-1 > 100 µM | TK-10 > 100 µM | NCI-H460 > 100 µM | HL-60 > 100 µM | NCI-H23 > 100 µM | SF-268 > 100 µM | MOLT-4 > 100 µM | SK-MEL-5 > 100 µM | K562 > 100 µM | UACC-257 > 100 µM

CC(C)C1=CC23CCC4C(C)(C(=O)O)CCCC4(C)C2CC1C1C(=O)N(c2ccc(Cc4ccc(N5C(=O)C6C7CC8C9(C)CCCC(C)(C(=O)O)C9CCC8(C=C7C(C)C)C6C5=O)cc4)cc2)C(=O)C13 (centres undefined)
inactive: HCC 2998 10.1 µM | OVCAR-3 10.7 µM | 786-0 10.9 µM | SNB-19 5.85 µM | SN12C 10.1 µM | SK-MEL-28 10.9 µM | TK-10 15.6 µM | SK-MEL-2 12 µM | HL-60 9.35 µM | NCI-H23 1.93 µM | SF-268 8.81 µM | MOLT-4 5.5 µM | SK-MEL-5 12.4 µM | K562 7.87 µM

NC(=O)OCC1=C(COC(N)=O)C(=O)c2c(O)ccc(O)c2C1=O
inactive: HCC 2998 > 100 µM | OVCAR-3 > 100 µM | SF-295 > 100 µM | SNB-75 > 100 µM | SN12C > 100 µM | SK-MEL-28 > 100 µM | IGROV-1 > 100 µM | TK-10 > 100 µM | SK-MEL-2 78.7 µM | HL-60 45.2 µM | NCI-H23 > 100 µM | SF-268 > 100 µM | MOLT-4 55.8 µM | SK-MEL-5 48 µM | K562 61.9 µM | UACC-257 > 100 µM

CC(C(=O)C(C)O[Si](c1ccccc1)(c1ccccc1)C(C)(C)C)=P(c1ccccc1)(c1ccccc1)c1ccccc1 (centres undefined)
inactive: HCC 2998 3.57 µM | OVCAR-3 2.9 µM | SF-295 3.33 µM | 786-0 4.06 µM | SNB-75 3.41 µM | SNB-19 3.96 µM | SN12C 3.77 µM | IGROV-1 3.7 µM | TK-10 4.76 µM | NCI-H460 3.69 µM | SK-MEL-2 2.5 µM | HL-60 1.91 µM | NCI-H23 3.23 µM | MOLT-4 2.95 µM | SK-MEL-5 2.75 µM | K562 2.95 µM | UACC-257 3.71 µM

Cn1cnc([N+](=O)[O-])c1Sc1nc2cc([N+](=O)[O-])ccc2[nH]1
inactive: HCC 2998 15 µM | OVCAR-3 37.9 µM | SF-295 > 100 µM | 786-0 42.4 µM | SNB-75 26.2 µM | SNB-19 42.3 µM | SN12C > 10 µM | SK-MEL-28 15.3 µM | IGROV-1 19 µM | TK-10 19.5 µM | NCI-H460 36.1 µM | HL-60 14 µM | NCI-H23 23.8 µM | SF-268 19.9 µM | MOLT-4 14.8 µM | SK-MEL-5 15.5 µM | K562 24.8 µM | UACC-257 14.3 µM

CCCCc1ccc(-n2c3nc(=O)n(C)c(=O)c-3nc3ccccc32)cc1
inactive: HCC 2998 4.36 µM | OVCAR-3 2.86 µM | SF-295 11.1 µM | 786-0 16.3 µM | SNB-75 15.3 µM | SNB-19 8.24 µM | SN12C 7.35 µM | IGROV-1 13.6 µM | TK-10 13.9 µM | NCI-H460 4.03 µM | SK-MEL-2 10.9 µM | HL-60 10.6 µM | NCI-H23 2.37 µM | SF-268 10.1 µM | MOLT-4 15.3 µM | SK-MEL-5 1.52 µM | K562 12.4 µM | UACC-257 4.01 µM
